Measured values from patent publication US10641771B2, “Protein target complex” (HQ Medical Netherlands B.V., priority 2012, dated 2020).

What was measured:
4T1-Luc cells = experiment: Dry ice assay: binding to dead cells or uptake by living cells; format: cell-based, mouse; settings: dry-ice killed 4T1-Luc cells in the center of the wells, 15 min at 37° C.
Method: 4T1-Luc cells were seeded onto individual wells from a 12-well cell culture plate and allowed to grow to confluence in RPMI media supplemented with 10% fetal bovine serum. 4T1-luc2 mouse breast cancer cells were used as the adherence of these cells to the bottom of the culture well remains strong after dry-ice treatment. To initiate cryo-induced cell death, media was discarded and dry-ice was applied to the bottom center of each individual well for 15 sec. Subsequently, fresh medium with different concentrations of the first compound of the invention were added and cells were incubated at 37° C. for 15 min. After incubation, the media were discarded and the cells were washed twice with serum free medium and 0.5 ml fresh RPMI was added to each well. Cells were then visualized using a Licor Odyssey equipped with 700 and 800 nm diode laser. Luciferin ([…]) was also added to each well and fluorescence and bioluminescence images were acquired using an IVIS Spectrum (fluorescence: excitation filter: 710 nm, emission filter: 820 nm, exposure time: 90 s, bin: 8, f/stop: 2, field of view: 12.9 cm) (bioluminescence: open filter, exposure time: 30 s, bin: 8, f/stop: 1, field of view: 12.9 cm). Some culture wells were also stained for 15 min with Trypan Blue (0.2% in culture medium) to confirm cell death.

intracellular proteins = experiment: Identification of intracellular proteins that bind HQ5 (lysate incubated with dye); format: binding; settings: lysate incubated with HQ5 and CW800
Method: FIG. 12 relates to identification of intracellular proteins that bind HQ5. In order to try to identify the protein to which the HQ-dyes bind Lysate is (after pre-treatment) incubated with HQ5 and CW800. Exact protocol and technique not specified. […] A specific HQ5-binding protein has a molecular weight of approx. 40 kD.

injured tissues = settings: Prajapati et al., Mol Imaging 2009; cited from earlier work
4T1 cells = experiment: Confocal microscopy of Gambogic acid treated 4T1 cells; format: cell-based, mouse
Excerpt: Gambogic acid kills cells leading to membrane disruption. […] Annexin-V-FITC specifically binds to phosphatidyl serine (PS) expressed on the outside of the cell membrane of apoptotic and necrotic cells.
Annexin V, however, can next to late apoptotic and necrotic cells also stain cells in an early stage of apoptosis.

Question: For CC1(C)C(/C=C/C2=C(Oc3ccc(S(=O)(=O)O)cc3)C(=C/C=C3/N(CCCCS(=O)(=O)O)c4ccc(S(=O)(=O)[O-])cc4C3(C)C)/CCC2)=[N+](CCCCCC(=O)O)c2ccc(S(=O)(=O)O)cc21 [CW800], which “binding to dead cells” value (4T1-Luc cells) is on record?
Answer: specifically and dose-dependently bind to dead cells

Question: What about the “proteins bound, HQ5 compared with CW800” value (intracellular proteins) of the same molecule?
Answer: share some but also have different proteins they bind with

Question: Which blood pool behaviour (injured tissues) does the source give for CC1(C)C(=CC=C2CCCC(C=CC3=[N+](CCCCS(=O)(=O)[O-])c4ccc5ccccc5c4C3(C)C)=C2Cl)N(CCCCS(=O)(=O)[O-])c2ccc3ccccc3c21.[Na+] [IR-820] here?
Answer: is a blood pool agent that just simply leaks out of blood vessels after disruption of the vessels

B1: Annexin V: binds phosphatidyl serine on the outside of the membrane of apoptotic and necrotic cells (protein, UniProt P08758 2-320, looked up)
Annexin A5: AQVLRGTVTDFPGFDERADAETLRKAMKGLGTDEESILTLLTSRSNAQRQEISAAFKTLFGRDLLDDLKSELTGKFEKLIVALMKPSRLYDAYELKHALKGAGTNEKVLTEIIASRTPEELRAIKQVYEEEYGSSLEDDVVGDTSGYYQRMLVVLLQANRDPDAGIDEAQVEQDAQALFQAGELKWGTDEEKFITIFGTRSVSHLRKVFDKYMTISGFQIEETIDRETSGNLEQLLLAVVKSIRSIPAYLAETLYYAMKGAGTDDHTLIRVMVSRSEIDLFNIRKEFRKNFATSLYSMIKGDTSGDYKKALLLLCGEDD
modifications: FITC label
Question: With B1 as the molecule, how does the “number of cells stained” value (4T1 cells) read?
Answer: stains a larger number of cells than both HQ5 and EtD
